# From patent US20240366542A1, “S[…] SEROTONIN RECEPTORS” (ATAI Therapeutics, Inc., priority 2022, published 2024)
# Assays:
# Type in all cases: cell-based
# [1] = biological target: T1, 5-HT2A receptor (Homo sapiens, UniProt P28223); assay: Calcium mobilization (Ca++ flux) assay, agonist mode, 5-HT2A; conditions: for 5-HT2A receptor, Ca++ Flux % activation @30 μM: 30 μM compound, relative to MAX control 0.1 μM serotonin; for EC50: agonist mode, FLIPR calcium mobilization
# Experimental: (§1) The Calcium No-Wash^PLUS assay monitors the activation of a GPCR via Gq secondary messenger signaling in a live cell, non-imaging assay format. Calcium mobilization in PathHunter® cell lines or other cell lines stably expressing Gq-coupled GPCRs is monitored using a calcium-sensitive dye that is loaded into cells. GPCR activation by a compound result in the release of calcium from intracellular stores and an increase in dye fluorescence that is measured in real-time. Cell lines expressing the GPCR of interest were expanded from freezer stocks according to standard procedures. Cells were seeded in a total volume of 20 μL into black-walled, clear-bottom, Poly-D-lysine coated 384-well microplates and incubated at 37° C. for the appropriate time prior to testing. Assays were performed in 1×Dye Loading Buffer consisting of 1× Dye, 1× Additive A and 2.5 mM Probenecid in HBSS/20 mM Hepes. Probenicid was prepared fresh. Cells were loaded with dye prior to testing. Media was aspirated from cells and replaced with 20 μL Dye Loading Buffer. Cells were incubated for 30-60 minutes at 37° C. For agonist determination, cells were incubated with sample to induce response. After dye loading, cells were removed from the incubator and 10 μL HBSS/20 mM Hepes was added. 3× vehicle was included in the buffer when performing agonist dose curves to define the EC80 for subsequent antagonist assays. Cells were incubated for 30 minutes at room temperature in the dark to equilibrate plate temperature. Intermediate dilution of sample stocks was performed to generate 4× sample in assay buffer. Compound agonist activity was measured on a FLIPR Tetra (MDS). Calcium mobilization was monitored for 2 minutes and 10 μL 4× sample in HBSS/20 mM Hepes was added to the cells 5 seconds into the assay. Compound activity data was analyzed using CBIS data analysis suite (ChemInnovation, CA). For agonist mode assays, percentage activity is calculated using the following formula:
# % Activity=100%×(mean RFU of test sample−mean RFU of vehicle control)/(mean MAX RFU control ligand−mean RFU of vehicle control).
# In these studies, the MAX RFU was generated by using 0.1 μM serotonin for the calcium mobilization assay.
# [2] = biological target: 5-HT2B receptor (Homo sapiens, UniProt P41595); assay: Calcium mobilization (Ca++ flux) assay, agonist mode, 5-HT2B
# 5-HT2B receptor, sequence (P41595 whole entry): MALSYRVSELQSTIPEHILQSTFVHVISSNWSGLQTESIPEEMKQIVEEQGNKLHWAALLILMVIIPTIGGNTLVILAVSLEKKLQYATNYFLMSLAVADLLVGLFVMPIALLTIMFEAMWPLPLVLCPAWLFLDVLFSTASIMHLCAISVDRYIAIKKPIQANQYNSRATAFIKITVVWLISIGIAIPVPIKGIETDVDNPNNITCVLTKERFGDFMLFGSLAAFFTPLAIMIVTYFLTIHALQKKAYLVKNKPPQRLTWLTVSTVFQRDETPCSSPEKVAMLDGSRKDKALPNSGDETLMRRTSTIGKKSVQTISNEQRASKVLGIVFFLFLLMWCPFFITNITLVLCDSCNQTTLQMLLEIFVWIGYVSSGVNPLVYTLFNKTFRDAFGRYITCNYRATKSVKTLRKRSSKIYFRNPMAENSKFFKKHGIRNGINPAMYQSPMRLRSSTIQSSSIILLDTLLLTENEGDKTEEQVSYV
# Experimental: as §1, with “Media was aspirated from cells and replaced with 20 μL Dye Loading Buffer. Cells were incubated for 30-60 minutes at 37° C. For agonist determination, cells were incubated with sample to induce response. After dye loading, cells were removed from the incubator and 10 μL HBSS/20 mM Hepes was added. 3× vehicle was included in the buffer when performing agonist dose curves to define the EC80 for subsequent antagonist assays. Cells were incubated for 30 minutes at room temperature in the dark to equilibrate plate temperature. Intermediate dilution of sample stocks was performed to generate 4× sample in assay buffer.” left out, “formula: […]” for “formula:”
# [3] = biological target: T2, 5-HT2C receptor (Homo sapiens, UniProt P28335); assay: Calcium mobilization (Ca++ flux) assay, agonist mode, 5-HT2C
# T2 sequence (P28335 33-458): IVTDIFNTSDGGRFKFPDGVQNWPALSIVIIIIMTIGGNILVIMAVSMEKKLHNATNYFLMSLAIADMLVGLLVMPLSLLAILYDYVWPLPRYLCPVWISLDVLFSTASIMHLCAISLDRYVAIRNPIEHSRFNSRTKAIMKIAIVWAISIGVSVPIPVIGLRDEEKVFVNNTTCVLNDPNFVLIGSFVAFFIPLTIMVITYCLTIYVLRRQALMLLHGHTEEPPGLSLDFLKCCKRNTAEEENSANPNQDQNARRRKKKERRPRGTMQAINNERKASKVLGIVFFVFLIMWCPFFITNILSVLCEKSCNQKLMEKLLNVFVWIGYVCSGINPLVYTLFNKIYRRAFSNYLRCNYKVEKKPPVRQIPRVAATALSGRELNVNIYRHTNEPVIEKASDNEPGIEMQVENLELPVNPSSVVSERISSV
# Experimental: as §1, with “Media was aspirated from cells and replaced with 20 μL Dye Loading Buffer. Cells were incubated for 30-60 minutes at 37° C. For agonist determination, cells were incubated with sample to induce response. After dye loading, cells were removed from the incubator and 10 μL HBSS/20 mM Hepes was added. 3× vehicle was included in the buffer when performing agonist dose curves to define the EC80 for subsequent antagonist assays. Cells were incubated for 30 minutes at room temperature in the dark to equilibrate plate temperature. Intermediate dilution of sample stocks was performed to generate 4× sample in assay buffer.” left out, “formula: […]” for “formula:”
# [4] = biological target: T1, 5-HT2A receptor; assay: PathHunter β-Arrestin assay, agonist mode, 5-HT2A
# Experimental: The PathHunter® β-Arrestin assay monitors the activation of a GPCR in a homogenous, non-imaging assay format using a technology developed by DiscoverX called Enzyme Fragment Complementation (EFC) with β-galactosidase (β-Gal) as the functional reporter. […] EA is fused to β-Arrestin and PK is fused to the GPCR of interest. When the GPCR is activated and β-Arrestin is recruited to the receptor, ED and EA complementation occurs, restoring β-Gal activity which is measured using chemiluminescent PathHunter® Detection Reagents. PathHunter cell lines (DiscoveRx Eurofins) were expanded from freezer stocks according to standard procedures. Cells were seeded in a total volume of 20 μL into white walled, 384-well microplates and incubated at 37° C. for the appropriate time prior to testing. For agonist determination, cells were incubated with sample to induce response. Intermediate dilution of sample stocks was performed to generate 5× sample in assay buffer. 5 μL of 5× sample was added to cells and incubated at 37° C. or room temperature for 90 to 180 minutes. Vehicle concentration was 1%. β-Arrestin assay signal was generated through a single addition of 12.5 or 15 μL (50% v/v) of PathHunter Detection reagent cocktail, followed by a one-hour incubation at room temperature. Microplates were read following signal generation with a PerkinElmer Envision™ instrument for chemiluminescent signal detection. Compound activity was analyzed using CBIS data analysis suite (ChemInnovation, CA). For agonist mode assays, percentage activity was calculated using the following formula:
# % Activity=100%×(mean RLU of test sample−mean RLU of vehicle control)/(mean MAX control ligand−mean RLU of vehicle control).
# In these studies, the MAX control ligand response was generated using 1-10 μM serotonin.
# T1 sequence (P28223 whole entry): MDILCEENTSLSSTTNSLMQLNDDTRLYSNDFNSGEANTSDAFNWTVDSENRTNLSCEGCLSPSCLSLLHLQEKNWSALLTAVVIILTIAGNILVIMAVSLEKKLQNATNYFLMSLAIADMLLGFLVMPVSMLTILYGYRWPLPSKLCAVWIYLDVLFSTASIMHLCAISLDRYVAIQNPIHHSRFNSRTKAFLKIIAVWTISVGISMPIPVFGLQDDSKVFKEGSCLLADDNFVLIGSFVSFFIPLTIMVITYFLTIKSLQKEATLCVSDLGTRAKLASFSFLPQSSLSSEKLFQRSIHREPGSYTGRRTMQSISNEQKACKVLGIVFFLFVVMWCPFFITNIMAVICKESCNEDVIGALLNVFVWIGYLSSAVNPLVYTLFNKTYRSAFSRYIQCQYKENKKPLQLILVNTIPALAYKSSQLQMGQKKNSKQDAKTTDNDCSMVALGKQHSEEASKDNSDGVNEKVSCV
Structure (SMILES),"5-HT2A receptor, Ca++ Flux % activation @30 μM [1]",EC50 [2] [nM],EC50 [3] [nM],EC50 [1] [nM],EC50 [4] [nM]
"COc1cc(S(C)(=N)=O)c(OC)cc1CCNCc1cc(C)cc(Cl)c1 (single isomer, unassigned) [Compound 2, (4-(2-((3-chloro-5-methylbenzyl)amino)ethyl)-2,5-dimethoxyphenyl)(imino)(methyl)-λ^6-sulfanone]",NA/57%,,,,
"COc1cc(S(C)(=N)=O)c(OC)cc1CCNCc1cc(C)cc(Cl)c1 (single isomer, unassigned) [Compound 3, (4-(2-((3-chloro-5-methylbenzyl)amino)ethyl)-2,5-dimethoxyphenyl)(imino)(methyl)-λ^6-sulfanone]",78%,> 1000,1490,2.4,13.6
"COc1cc(S(C)(=N)=O)c(OC)cc1CCNCc1cc(C)cc(Cl)c1 (stereo not shown) [Compound 1, (4-(2-((3-chloro-5-methylbenzyl)amino)ethyl)-2,5-dimethoxyphenyl)(imino)(methyl)-λ^6-sulfanone]",102%,> 1000,,4.1,25
"COc1cc(S(C)(=N)=O)c(OC)cc1CCNCc1cc(C)cc(Cl)n1 (stereo not shown) [Compound 4, (4-(2-(((6-chloro-4-methylpyridin-2-yl)methyl)amino)ethyl)-2,5-dimethoxyphenyl)(imino)(methyl)-λ^6-sulfanone]",NA/67%,,,,
"COc1cc(S(C)(=N)=O)c(OC)cc1CCNCc1ccccc1OC (stereo not shown) [Compound 5, (2,5-dimethoxy-4-(2-((2-methoxybenzyl)amino)ethyl)phenyl)(imino) (methyl)-λ^6-sulfanone]",111%,,3.6,1.7,3.2
"COc1cc(S(C)(=N)=O)c(OC)cc1CCNCc1ccccc1O (stereo not shown) [Compound 6, (4-(2-((2-hydroxybenzyl)amino)ethyl)-2,5-dimethoxyphenyl)(imino)(methyl)-λ^6-sulfanone]",NA/ 82%,,,,
